Experimental data published in patent US11945813B2, “5-substituted 4-amino-1H-benzo[c][1,2,6]thiadiazine 2,2-dioxides and formulations and uses thereof” (Firmenich Incorporated, priority 2018, dated 2024).

Biological target: T1, T1R2/T1R3 taste receptor (Homo sapiens, UniProt Q8TE23)
T1 sequence (Q8TE23 20-839): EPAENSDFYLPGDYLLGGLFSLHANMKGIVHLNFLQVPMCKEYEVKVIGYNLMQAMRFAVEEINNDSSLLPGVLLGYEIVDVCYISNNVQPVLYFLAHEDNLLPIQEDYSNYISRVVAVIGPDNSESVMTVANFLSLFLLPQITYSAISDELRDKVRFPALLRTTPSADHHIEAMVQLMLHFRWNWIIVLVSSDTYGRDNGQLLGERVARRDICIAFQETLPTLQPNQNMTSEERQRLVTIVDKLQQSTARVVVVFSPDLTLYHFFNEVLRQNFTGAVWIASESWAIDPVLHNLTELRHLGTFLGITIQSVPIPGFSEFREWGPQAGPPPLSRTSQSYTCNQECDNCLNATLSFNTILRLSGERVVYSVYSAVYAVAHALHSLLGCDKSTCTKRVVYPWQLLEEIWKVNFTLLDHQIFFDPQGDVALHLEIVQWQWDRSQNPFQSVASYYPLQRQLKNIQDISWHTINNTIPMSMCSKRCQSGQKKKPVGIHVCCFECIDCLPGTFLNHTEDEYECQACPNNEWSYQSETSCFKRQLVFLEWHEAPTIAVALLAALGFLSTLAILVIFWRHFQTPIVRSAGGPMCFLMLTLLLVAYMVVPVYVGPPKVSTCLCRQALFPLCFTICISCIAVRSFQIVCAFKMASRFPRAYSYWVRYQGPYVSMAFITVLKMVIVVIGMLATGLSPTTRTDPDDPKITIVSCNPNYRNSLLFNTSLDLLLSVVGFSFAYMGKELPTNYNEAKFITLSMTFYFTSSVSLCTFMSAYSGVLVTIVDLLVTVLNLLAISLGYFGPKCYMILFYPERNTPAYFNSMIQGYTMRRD
T1 sequence (Q7RTX0 21-852 partner): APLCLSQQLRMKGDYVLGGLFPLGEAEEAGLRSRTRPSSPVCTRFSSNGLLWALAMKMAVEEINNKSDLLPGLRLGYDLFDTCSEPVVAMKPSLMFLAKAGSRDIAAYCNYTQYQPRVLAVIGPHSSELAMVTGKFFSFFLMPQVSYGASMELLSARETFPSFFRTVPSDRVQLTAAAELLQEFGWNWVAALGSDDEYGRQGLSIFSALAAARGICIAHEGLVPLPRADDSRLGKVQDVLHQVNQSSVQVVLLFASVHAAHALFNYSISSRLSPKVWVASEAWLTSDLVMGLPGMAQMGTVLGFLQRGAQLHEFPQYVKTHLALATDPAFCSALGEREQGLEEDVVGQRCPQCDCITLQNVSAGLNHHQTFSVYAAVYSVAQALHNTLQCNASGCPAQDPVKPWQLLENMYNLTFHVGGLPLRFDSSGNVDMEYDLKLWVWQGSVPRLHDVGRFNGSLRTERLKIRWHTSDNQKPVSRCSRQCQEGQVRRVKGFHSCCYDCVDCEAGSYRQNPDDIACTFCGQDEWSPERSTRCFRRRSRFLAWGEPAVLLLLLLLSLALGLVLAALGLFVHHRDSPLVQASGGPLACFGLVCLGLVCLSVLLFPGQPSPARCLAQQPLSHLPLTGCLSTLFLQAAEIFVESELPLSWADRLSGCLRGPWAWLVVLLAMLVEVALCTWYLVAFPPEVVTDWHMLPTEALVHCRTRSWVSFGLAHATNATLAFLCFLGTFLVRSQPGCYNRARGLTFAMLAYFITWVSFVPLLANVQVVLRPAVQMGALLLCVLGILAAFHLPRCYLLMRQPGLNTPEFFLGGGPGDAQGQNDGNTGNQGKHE
Assay: Receptor-based assay: sweetener EC50 alone and with test compound (enhancement ratio)
Format: cell-based
Conditions: for Sucralose Enhancement EC50 Ratio: sweetener sucralose; for Sucrose Enhancement EC50 Ratio: sweetener sucrose; for Fructose Enhancement EC50 Ratio: sweetener fructose
Protocol: Potencies (EC50 values) for the sweeteners sucrose, sucralose, and fructose were measured against the T1R2/T1R3 taste receptor. EC50 was determined using the sweetener alone and in the presence of 3 μM, 10 μM, or 50 μM of test compound. EC50 ratios were calculated by the ratio of potency with and without the test compound. An “A” value indicates an enhancement ratio of greater than 20. A “B” value indicates an enhancement ratio from 10 to 20. A “C” value indicates an enhancement ratio greater than 1 and less than 10.

SMILES: Cc1cnc(NC(C)(C)COc2cccc3c2C(N)=NS(=O)(=O)N3)nc1 [Compound 100, 4-amino-5-(2-methyl-2-((5-methylpyrimidin-2-yl)amino)propoxy)-1H-benzo[c][1,2,6]thiadiazine 2,2-dioxide]
- Sucralose Enhancement EC50 Ratio (10 μM test compound): A (An “A” value indicates an enhancement ratio of greater than 20)
- Sucralose Enhancement EC50 Ratio (50 μM test compound): A (An “A” value indicates an enhancement ratio of greater than 20)
- Sucrose Enhancement EC50 Ratio (3 μM test compound): C (A “C” value indicates an enhancement ratio greater than 1 and less than 10)
- Sucrose Enhancement EC50 Ratio (10 μM test compound): C (A “C” value indicates an enhancement ratio greater than 1 and less than 10)
- Sucrose Enhancement EC50 Ratio (50 μM test compound): C (A “C” value indicates an enhancement ratio greater than 1 and less than 10)

SMILES: CC(C)(COc1cccc2c1C(N)=NS(=O)(=O)N2)Nc1ccccn1 [Compound 101]
- Fructose Enhancement EC50 Ratio (10 μM test compound): C (A “C” value indicates an enhancement ratio greater than 1 and less than 10)
- Sucralose Enhancement EC50 Ratio (10 μM test compound): A (An “A” value indicates an enhancement ratio of greater than 20)
- Sucralose Enhancement EC50 Ratio (50 μM test compound): A (An “A” value indicates an enhancement ratio of greater than 20)
- Sucrose Enhancement EC50 Ratio (3 μM test compound): C (A “C” value indicates an enhancement ratio greater than 1 and less than 10)
- Sucrose Enhancement EC50 Ratio (10 μM test compound): C (A “C” value indicates an enhancement ratio greater than 1 and less than 10)
- Sucrose Enhancement EC50 Ratio (50 μM test compound): C (A “C” value indicates an enhancement ratio greater than 1 and less than 10)

SMILES: CC(C)(COc1cccc2c1C(N)=NS(=O)(=O)N2)Nc1ncccn1 [Compound 102]
- Fructose Enhancement EC50 Ratio (10 μM test compound): C (A “C” value indicates an enhancement ratio greater than 1 and less than 10)
- Sucralose Enhancement EC50 Ratio (10 μM test compound): A (An “A” value indicates an enhancement ratio of greater than 20)
- Sucralose Enhancement EC50 Ratio (50 μM test compound): A (An “A” value indicates an enhancement ratio of greater than 20)
- Sucrose Enhancement EC50 Ratio (10 μM test compound): C (A “C” value indicates an enhancement ratio greater than 1 and less than 10)
- Sucrose Enhancement EC50 Ratio (50 μM test compound): B (A “B” value indicates an enhancement ratio from 10 to 20)

SMILES: Cc1cc(C)nc(NC(C)(C)COc2cccc3c2C(N)=NS(=O)(=O)N3)n1 [Compound 103]
- Fructose Enhancement EC50 Ratio (10 μM test compound): C (A “C” value indicates an enhancement ratio greater than 1 and less than 10)
- Fructose Enhancement EC50 Ratio (50 μM test compound): C (A “C” value indicates an enhancement ratio greater than 1 and less than 10)
- Sucralose Enhancement EC50 Ratio (10 μM test compound): A (An “A” value indicates an enhancement ratio of greater than 20)
- Sucralose Enhancement EC50 Ratio (50 μM test compound): A (An “A” value indicates an enhancement ratio of greater than 20)
- Sucrose Enhancement EC50 Ratio (3 μM test compound): C (A “C” value indicates an enhancement ratio greater than 1 and less than 10)
- Sucrose Enhancement EC50 Ratio (10 μM test compound): C (A “C” value indicates an enhancement ratio greater than 1 and less than 10)
- Sucrose Enhancement EC50 Ratio (50 μM test compound): C (A “C” value indicates an enhancement ratio greater than 1 and less than 10)

SMILES: NC1=NS(=O)(=O)Nc2cccc(OC[C@H]3CCCN(c4ccccn4)C3)c21 [Compound 104]
- Fructose Enhancement EC50 Ratio (10 μM test compound): C (A “C” value indicates an enhancement ratio greater than 1 and less than 10)
- Sucralose Enhancement EC50 Ratio (10 μM test compound): A (An “A” value indicates an enhancement ratio of greater than 20)
- Sucralose Enhancement EC50 Ratio (50 μM test compound): A (An “A” value indicates an enhancement ratio of greater than 20)
- Sucrose Enhancement EC50 Ratio (3 μM test compound): C (A “C” value indicates an enhancement ratio greater than 1 and less than 10)
- Sucrose Enhancement EC50 Ratio (10 μM test compound): C (A “C” value indicates an enhancement ratio greater than 1 and less than 10)
- Sucrose Enhancement EC50 Ratio (50 μM test compound): C (A “C” value indicates an enhancement ratio greater than 1 and less than 10)

SMILES: NC1=NS(=O)(=O)Nc2cccc(OC[C@H]3CCCN(c4ncccn4)C3)c21 [Compound 105]
- Fructose Enhancement EC50 Ratio (10 μM test compound): C (A “C” value indicates an enhancement ratio greater than 1 and less than 10)
- Fructose Enhancement EC50 Ratio (50 μM test compound): C (A “C” value indicates an enhancement ratio greater than 1 and less than 10)
- Sucralose Enhancement EC50 Ratio (10 μM test compound): A (An “A” value indicates an enhancement ratio of greater than 20)
- Sucralose Enhancement EC50 Ratio (50 μM test compound): A (An “A” value indicates an enhancement ratio of greater than 20)
- Sucrose Enhancement EC50 Ratio (3 μM test compound): C (A “C” value indicates an enhancement ratio greater than 1 and less than 10)
- Sucrose Enhancement EC50 Ratio (10 μM test compound): C (A “C” value indicates an enhancement ratio greater than 1 and less than 10)
- Sucrose Enhancement EC50 Ratio (50 μM test compound): C (A “C” value indicates an enhancement ratio greater than 1 and less than 10)

SMILES: CC(C)(COc1cccc2c1C(N)=NS(=O)(=O)N2)Nc1ccnc(Cl)n1 [Compound 201, 4-amino-5-(2-((2-chloropyrimidin-4-yl)amino)-2-methylpropoxy)-1H-benzo[c][1,2,6]thiadiazine 2,2-dioxide]
- Fructose Enhancement EC50 Ratio (10 μM test compound): C (A “C” value indicates an enhancement ratio greater than 1 and less than 10)
- Sucralose Enhancement EC50 Ratio (50 μM test compound): A (An “A” value indicates an enhancement ratio of greater than 20)
- Sucrose Enhancement EC50 Ratio (3 μM test compound): C (A “C” value indicates an enhancement ratio greater than 1 and less than 10)
- Sucrose Enhancement EC50 Ratio (10 μM test compound): C (A “C” value indicates an enhancement ratio greater than 1 and less than 10)
- Sucrose Enhancement EC50 Ratio (50 μM test compound): C (A “C” value indicates an enhancement ratio greater than 1 and less than 10)

SMILES: CC(C)(COc1cccc2c1C(N)=NS(=O)(=O)N2)Nc1ccnc(-n2cccn2)n1 [Compound 202]
- Sucrose Enhancement EC50 Ratio (50 μM test compound): C (A “C” value indicates an enhancement ratio greater than 1 and less than 10)

SMILES: CC(C)(COc1cccc2c1C(N)=NS(=O)(=O)N2)Nc1ccnc(N2CCCC2)n1 [Compound 204]
- Fructose Enhancement EC50 Ratio (50 μM test compound): C (A “C” value indicates an enhancement ratio greater than 1 and less than 10)
- Sucralose Enhancement EC50 Ratio (10 μM test compound): A (An “A” value indicates an enhancement ratio of greater than 20)
- Sucralose Enhancement EC50 Ratio (50 μM test compound): A (An “A” value indicates an enhancement ratio of greater than 20)
- Sucrose Enhancement EC50 Ratio (3 μM test compound): C (A “C” value indicates an enhancement ratio greater than 1 and less than 10)
- Sucrose Enhancement EC50 Ratio (10 μM test compound): C (A “C” value indicates an enhancement ratio greater than 1 and less than 10)
- Sucrose Enhancement EC50 Ratio (50 μM test compound): C (A “C” value indicates an enhancement ratio greater than 1 and less than 10)

SMILES: CC(C)(COc1cccc2c1C(N)=NS(=O)(=O)N2)Nc1ccnc(N2CCOCC2)n1 [Compound 205]
- Fructose Enhancement EC50 Ratio (50 μM test compound): C (A “C” value indicates an enhancement ratio greater than 1 and less than 10)
- Sucralose Enhancement EC50 Ratio (10 μM test compound): B (A “B” value indicates an enhancement ratio from 10 to 20)
- Sucralose Enhancement EC50 Ratio (50 μM test compound): A (An “A” value indicates an enhancement ratio of greater than 20)
- Sucrose Enhancement EC50 Ratio (3 μM test compound): C (A “C” value indicates an enhancement ratio greater than 1 and less than 10)
- Sucrose Enhancement EC50 Ratio (10 μM test compound): C (A “C” value indicates an enhancement ratio greater than 1 and less than 10)
- Sucrose Enhancement EC50 Ratio (50 μM test compound): C (A “C” value indicates an enhancement ratio greater than 1 and less than 10)

SMILES: COCCNc1nccc(NC(C)(C)COc2cccc3c2C(N)=NS(=O)(=O)N3)n1 [Compound 206]
- Fructose Enhancement EC50 Ratio (10 μM test compound): C (A “C” value indicates an enhancement ratio greater than 1 and less than 10)
- Fructose Enhancement EC50 Ratio (50 μM test compound): C (A “C” value indicates an enhancement ratio greater than 1 and less than 10)
- Sucralose Enhancement EC50 Ratio (10 μM test compound): B (A “B” value indicates an enhancement ratio from 10 to 20)
- Sucralose Enhancement EC50 Ratio (50 μM test compound): A (An “A” value indicates an enhancement ratio of greater than 20)
- Sucrose Enhancement EC50 Ratio (3 μM test compound): C (A “C” value indicates an enhancement ratio greater than 1 and less than 10)
- Sucrose Enhancement EC50 Ratio (10 μM test compound): C (A “C” value indicates an enhancement ratio greater than 1 and less than 10)
- Sucrose Enhancement EC50 Ratio (50 μM test compound): C (A “C” value indicates an enhancement ratio greater than 1 and less than 10)
